Data taken from PMC5717343 (Open Biology, 2017).

Test system: PrP^Sc in iPK1/2 cells
Assay type: cell-based

## dextran sulfate
  concentration of apparent curing: greater than 1 × 10^−6 M
  effect on PrP^Sc levels / prion infection (curing): dose-dependent decrease in PrP^Sc
read-out: apparent IC50, reduction of PrP^Sc
  IC50: ~500 nM
